Measured values reported in patent US20100323990A1, “SHIP 1 MODULATOR PRODRUGS” (THE UNIVERSITY OF BRITISH COLUMBIA, priority 2006, published 2010).

Key:
[1] = test system: SHIP C2 domain; experiment: Scintillation proximity assay, C2 domain; format: binding; conditions: C2 domain 10 nM on SPA beads
Method: Compound 100 was radiolabelled with tritium by GE Healthcare (Piscataway, N.J.) to a specific activity of 42 Ci/mmole. Copper chelate (His-Tag) YSi SPA Scintillation Beads (GE ealthcare, Piscataway, N.J.) were diluted in 0.25% BSA/TBS to 1.5 mg/mL and recombinant, His6-tagged protein added at the indicated concentrations: wild-type (1 pM), ΔC2 SHIP enzyme (1 pM) or C2 domain (10 nM). Protein was allowed to bind 1 h at 23° C., and 250 μg of beads were aliquoted per well of a 96-well plate. 5 μCi of [^3H]-Compound 100 was added per well, the plate gently agitated for 30 min and the amount of bead associated radioactivity quantified by counting in a Wallac BetaPlate plate scintillation counter.
Isolated recombinant, His6-tagged C2 domain was expressed and its PI-3,4-P2 binding ability was determined using protein lipid overlay assays. Purified C2 domain was incubated with membrane strips spotted with PI-3,4-P2 and bound protein detected using an anti-His6 antibody. As shown in FIG. 11C the C2 domain bound PI-3,4-P2 and this binding was inhibited by Compound 100, consistent with both Compound 100 and PI-3,4-P2 interacting with the C2 domain at a common binding site.

[2] = test system: 100 protein kinase and phosphatase targets; experiment: Profiling against 100 protein kinase and phosphatase targets (SignalChem); format: biochemical; conditions: 2 μM final concentration; changes <25% not considered significant
Method: Compound profiling activity was undertaken using 100 protein kinase and phosphatase targets by SignalChem (Richmond, BC, Canada. www.signalchem.com) against compound Compound 100 (2 μM final concentration). Protein kinase assays were performed in the presence of 50 μM ATP at 30° C. for 15 min. Protein phosphatase activites were determined using pNPP as substrate and were also performed at 37° C. for 15 min. The activity of the enzymes in the presence of Compound 100 was compared to that in the vehicle control and expressed as a % change in activity relative to that observed in the vehicle control. Changes in activity of <25% were not considered significant. Enzymes affected by Compound 100 are plotted in an expanded graph in FIG. 12B.

[3] = test system: Mast cells; experiment: Stimulation of mast cells by FcεRI crosslinking (Assay 4); format: cell-based; conditions: test compound 30 min prior to DNP-HSA
Method: Assay 1) In vitro testing in a SHIP enzyme assay. Test compounds were dissolved in a suitable solvent (e.g. EtOH, DMSO and others) and diluted into aqueous buffer (20 mM Tris HCl, pH 7.5 and 10 mM MgCl2). SHIP enzyme assays were performed in 96-well microtitre plates with 10 ng of enzyme/well in a total volume of 25 μL of 20 mM Tris HCl, pH 7.5 and 10 mM MgCl2. SHIP enzyme was incubated with test extracts (provided in solvent) or vehicle for 15 min at 23° C. before the addition of 100 μM inositol-1,3,4,5-tetrakisphosphate (Echelon Biosciences Inc, Salt Lake City, Utah). After 20 min at 37° C. and the amount of inorganic phosphate released assessed by the addition of Malachite Green reagent and absorbance measurement at 650 nm. Assay 2) Macrophage TNF-α production. J774.1a macrophage cells were treated with 10 μg/mL of test compound dissolved in solvent (e.g. cyclodextran) for 40 minutes prior to the addition of 100 ng/mL LPS. Culture supernatants were collected after 2 hr and 5 hr for TNF-α determination by ELISA. Assay 3) Macrophage TNF-α NO assay. J774.1a macrophage cells were treated with 10 μg/ml of test compound dissolved in solvent for 40 minutes prior to the addition of LPS. Culture supernatants were collected after 24 hr. for determination of NO concentration using the Griess reagent. Assay 4) Stimulation of mast cells by FcεRI crosslinking. Mast cells were pre-loaded overnight in BMMC medium lacking IL-3 with 0.1 μg/ml anti-DNP IgE (SPE-7, Sigma, Oakville, Ont). For calcium flux measurements, cells were incubated with 2 μM fura 2-acetoxymethyl ester (Molecular Probes, Eugene, Oreg.) in Tyrode's buffer at 23° C. for 45 min. Cells were then washed and incubated in the presence of the test compound 30 min prior to stimulation with the indicated concentration of DNP-human serum albumin (DNP-HSA). Calcium influx was monitored by spectrofluorometry as described previously. For analysis of intracellular signaling, cells were pre-loaded with anti-DNP IgE as above, pre-treated with the test compound for 30 min at 37° C. and stimulated with 20 ng/ml DNP-HSA for 5 min. Total cell lysates were then prepared and analyzed for phospho-PKB, phospho-p38^MAPK, phospho-MAPK, Grb-2 (Cell Signalling, Mississauga, Ont) and SHIP^6 by immunoblot analysis. Assay 5) Mouse acute cutaneous anaphylaxis model. […] The ability of SHIP activators to reduce tumor cell survival was assessed in MM cell lines treated with the test compound. The lines OPM1, OPM2, MM.1S and RPMI 8226 were plated at a density of 1×10^5 cells/mL in 200 μL of medium with various concentrations of the test compound, and viable cell numbers were determined on day 3 and day 5 by trypan blue exclusion. […]

[4] = test system: LNCaP cells; experiment: PKB activation in LNCaP cells, which do not express SHIP; format: cell-based, human; conditions: AQX-016A at doses up to 60 μM
Method: The ability of AQX-016A to inhibit activation of PIP3-dependent downstream signalling proteins in SHIP^+/+ vs SHIP^−/− was assessed. LPS stimulation of macrophages results in PKB phosphorylation. […] Similar protein loading was confirmed by reblotting with either antibodies to PKB or Grb2. […] Thus, AQX-016A inhibits PIP3-regulated intracellular signal transduction events in SHIP expressing hematopoietic cells, but not in SHIP-deficient hematopoietic or non-hematopoietic cells.

Row | binding of [3H]-Compound 100 to C2 domain [1] | off-target effects on 100 other kinases and phosphatases [2] | Structure (SMILES) | Assay 4: Stimulation of mast cells by FcεRI crosslinking, desired activity [3] | PKB phosphorylation in LNCaP cells [4]
1 | directly bind the C2 domain | minimal off-target effects | Cc1cc(O)cc2c1[C@]1(C)CCC3C(C)(C)CCC[C@]3(C)[C@H]1C2 (stereo partly shown) [Compound 100] | + | 
2 |  |  | Cc1cc(O)c(O)c2c1[C@]1(C)CCC3C(C)(C)CCC[C@]3(C)[C@H]1C2 (stereo partly shown) [AQX-016A] |  | no effect
